Source: the OligoGym collection
Where “and” joins values, the source holds several entries; their conditions need not be identical. Identical values can stand only once. HELM strings list units from the 5' end as sugar, base in round brackets, then linkage (d deoxyribose, r ribose, m 2'-O-methyl, p phosphodiester). Strings are as the collection lists them, not checked against the first reports. ss, as = sense and antisense strand; [lna] = locked nucleic acid (LNA); [fl2r] = 2'-fluoro

Conditions: siRNA
Also: test system not given here.

Substance	target mRNA knockdown
RNA1{r(A)p.r(U)p.r(C)p.r(G)p.r(U)p.r(C)p.r(G)p.r(U)p.m(C)p.r(A)p.r(G)p.r(G)p.r(G)p.m(U)p.r(A)p.r(A)p.r(G)p.r(G)p.r(U)p.r(T)p.r(T)}|RNA2{r(A)p.r(C)p.r(C)p.r(U)p.m(U)p.r(A)p.r(C)p.r(C)p.r(C)p.m(U)p.r(G)p.r(A)p.r(C)p.r(G)p.r(A)p.r(C)p.r(G)p.r(A)p.r(U)p.r(T)p.r(T)}$$$RNA1{StrandType:ss}|RNA2{StrandType:as}$	47%
RNA1{r(A)p.r(U)p.r(C)p.r(G)p.r(U)p.r(C)p.r(G)p.r(U)p.r(C)p.r(A)p.r(G)p.r(G)p.r(G)p.m(U)p.r(A)p.r(A)p.r(G)p.r(G)p.r(U)p.r(T)p.r(T)}|RNA2{r(A)p.r(C)p.r(C)p.r(U)p.m(U)p.r(A)p.r(C)p.r(C)p.r(C)p.r(U)p.r(G)p.r(A)p.r(C)p.r(G)p.r(A)p.r(C)p.r(G)p.r(A)p.r(U)p.r(T)p.r(T)}$$$RNA1{StrandType:ss}|RNA2{StrandType:as}$	49%
RNA1{r(A)p.r(U)p.r(C)p.r(U)p.r(G)p.r(A)p.r(A)p.r(G)p.r(A)p.r(A)p.r(G)p.r(G)p.r(A)p.r(G)p.r(A)p.r(A)p.r(A)p.r(A)p.r(A)p.[lna](T)p.[lna](T)}|RNA2{[lna](T)p.r(U)p.r(U)p.r(U)p.r(U)p.r(C)p.r(U)p.r(C)p.r(C)p.r(U)p.r(U)p.r(C)p.r(U)p.r(U)p.r(C)p.r(A)p.r(G)p.r(A)p.r(U)p.[lna](T)p.[lna](T)}$$$RNA1{StrandType:ss}|RNA2{StrandType:as}$	52% and 63%
RNA1{r(A)p.r(U)p.r(C)p.r(U)p.r(G)p.r(A)p.r(A)p.r(G)p.r(A)p.r(A)p.r(G)p.r(G)p.r(A)p.r(G)p.r(A)p.r(A)p.r(A)p.r(A)p.r(A)p.[lna](T)p.[lna](T)}|RNA2{r(U)p.r(U)p.r(U)p.r(U)p.r(U)p.r(C)p.r(U)p.r(C)p.r(C)p.r(U)p.r(U)p.r(C)p.r(U)p.r(U)p.r(C)p.r(A)p.r(G)p.r(A)p.r(U)p.[lna](T)p.[lna](T)}$$$RNA1{StrandType:ss}|RNA2{StrandType:as}$	93%
RNA1{r(A)p.r(U)p.r(C)p.r(U)p.r(G)p.r(A)p.r(A)p.r(G)p.r(A)p.r(A)p.r(G)p.r(G)p.r(A)p.r(G)p.r(A)p.r(A)p.r(A)p.r(A)p.r(A)p.d(T)p.d(T)}|RNA2{[lna](T)p.r(U)p.r(U)p.r(U)p.r(U)p.r(C)p.r(U)p.r(C)p.r(C)p.r(U)p.r(U)p.r(C)p.r(U)p.r(U)p.r(C)p.r(A)p.r(G)p.r(A)p.r(U)p.[lna](T)p.[lna](T)}$$$RNA1{StrandType:ss}|RNA2{StrandType:as}$	45%
RNA1{r(A)p.r(U)p.r(C)p.r(U)p.r(G)p.r(A)p.r(A)p.r(G)p.r(A)p.r(A)p.r(G)p.r(G)p.r(A)p.r(G)p.r(A)p.r(A)p.r(A)p.r(A)p.r(A)p.d(T)p.d(T)}|RNA2{r(U)p.r(U)p.r(U)p.r(U)p.r(U)p.r(C)p.r(U)p.r(C)p.r(C)p.r(U)p.r(U)p.r(C)p.r(U)p.r(U)p.r(C)p.r(A)p.r(G)p.r(A)p.r(U)p.[lna](T)p.[lna](T)}$$$RNA1{StrandType:ss}|RNA2{StrandType:as}$	93%
RNA1{r(A)p.r(U)p.r(C)p.r(U)p.r(G)p.r(A)p.r(A)p.r(G)p.r(A)p.r(A)p.r(G)p.r(G)p.r(A)p.r(G)p.r(A)p.r(A)p.r(A)p.r(A)p.r(A)p.d(T)p.d(T)}|RNA2{r(U)p.r(U)p.r(U)p.r(U)p.r(U)p.r(C)p.r(U)p.r(C)p.r(C)p.r(U)p.r(U)p.r(C)p.r(U)p.r(U)p.r(C)p.r(A)p.r(G)p.r(A)p.r(U)p.d(T)p.d(T)}$$$RNA1{StrandType:ss}|RNA2{StrandType:as}$	95%
RNA1{r(A)p.r(U)p.r(C)p.r(U)p.r(G)p.r(A)p.r(A)p.r(G)p.r(A)p.r(A)p.r(G)p.r(G)p.r(A)p.r(G)p.r(A)p.r(A)p.r(A)p.r(A)p.r(A)p.r(T)p.r(T)}|RNA2{[lna](T)p.r(U)p.r(U)p.r(U)p.r(U)p.r(C)p.r(U)p.r(C)p.r(C)p.r(U)p.r(U)p.r(C)p.r(U)p.r(U)p.r(C)p.r(A)p.r(G)p.r(A)p.r(U)p.[lna](T)p.[lna](T)}$$$RNA1{StrandType:ss}|RNA2{StrandType:as}$	22%
RNA1{r(A)p.r(U)p.r(C)p.r(U)p.r(G)p.r(A)p.r(A)p.r(G)p.r(A)p.r(A)p.r(G)p.r(G)p.r(A)p.r(G)p.r(A)p.r(A)p.r(A)p.r(A)p.r(A)p.r(T)p.r(T)}|RNA2{r(U)p.r(U)p.r(U)p.r(U)p.r(U)p.r(C)p.r(U)p.r(C)p.r(C)p.r(U)p.r(U)p.r(C)p.r(U)p.r(U)p.r(C)p.r(A)p.r(G)p.r(A)p.r(U)p.[lna](T)p.[lna](T)}$$$RNA1{StrandType:ss}|RNA2{StrandType:as}$	90%
RNA1{r(A)p.r(U)p.r(G)p.r(G)p.r(G)p.r(A)p.r(G)p.r(A)p.r(A)p.r(G)p.m(U)p.r(A)p.r(G)p.r(U)p.r(C)p.r(C)p.r(C)p.r(C)p.r(C)p.r(T)p.r(T)}|RNA2{r(G)p.r(G)p.r(G)p.r(G)p.r(G)p.r(A)p.r(C)p.m(U)p.r(A)p.r(C)p.r(U)p.r(U)p.r(C)p.r(U)p.r(C)p.r(C)p.r(C)p.r(A)p.r(U)p.r(T)p.r(T)}$$$RNA1{StrandType:ss}|RNA2{StrandType:as}$	84%
RNA1{r(C)p.[fl2r](C)p.r(A)p.r(G)p.r(C)p.r(G)p.r(A)p.r(G)p.r(C)p.r(C)p.[fl2r](C)p.r(A)p.r(A)p.r(A)p.r(A)p.[fl2r](G)p.r(A)p.r(A)p.r(A)p.r(T)p.r(T)}|RNA2{r(U)p.r(U)p.r(U)p.r(C)p.r(U)p.r(U)p.r(U)p.[fl2r](U)p.r(G)p.r(G)p.r(G)p.r(C)p.r(U)p.r(C)p.r(G)p.r(C)p.[fl2r](U)p.r(G)p.r(G)p.r(T)p.r(T)}$$$RNA1{StrandType:ss}|RNA2{StrandType:as}$	82%
RNA1{r(C)p.[fl2r](C)p.r(A)p.r(G)p.r(C)p.r(G)p.r(A)p.r(G)p.r(C)p.r(C)p.[fl2r](C)p.r(A)p.r(A)p.r(A)p.r(A)p.r(G)p.r(A)p.r(A)p.r(A)p.r(T)p.r(T)}|RNA2{r(U)p.r(U)p.r(U)p.r(C)p.r(U)p.r(U)p.r(U)p.r(U)p.r(G)p.r(G)p.r(G)p.r(C)p.r(U)p.r(C)p.r(G)p.r(C)p.r(U)p.r(G)p.r(G)p.r(T)p.r(T)}$$$RNA1{StrandType:ss}|RNA2{StrandType:as}$	85%
RNA1{r(C)p.[fl2r](U)p.r(A)p.[fl2r](A)p.r(G)p.[fl2r](C)p.r(C)p.[fl2r](U)p.r(G)p.[fl2r](U)p.r(U)p.[fl2r](U)p.r(C)p.[fl2r](U)p.r(U)p.[fl2r](C)p.r(C)p.[fl2r](U)p.r(C)p.r(T)p.r(T)}|RNA2{r(G)p.[fl2r](A)p.r(G)p.r(G)p.[fl2r](A)p.[fl2r](A)p.r(G)p.[fl2r](A)p.[fl2r](A)p.[fl2r](A)p.r(C)p.[fl2r](A)p.r(G)p.r(G)p.r(C)p.r(U)p.r(U)p.[fl2r](A)p.r(G)p.r(T)p.r(T)}$$$RNA1{StrandType:ss}|RNA2{StrandType:as}$	75%
RNA1{r(C)p.[fl2r](U)p.r(A)p.r(A)p.r(G)p.r(C)p.r(C)p.r(U)p.r(G)p.r(U)p.r(U)p.r(U)p.r(C)p.r(U)p.r(U)p.r(C)p.r(C)p.r(U)p.r(C)p.r(T)p.r(T)}|RNA2{r(G)p.r(A)p.r(G)p.r(G)p.r(A)p.r(A)p.r(G)p.r(A)p.r(A)p.r(A)p.r(C)p.r(A)p.r(G)p.r(G)p.r(C)p.r(U)p.r(U)p.r(A)p.r(G)p.r(T)p.r(T)}$$$RNA1{StrandType:ss}|RNA2{StrandType:as}$	82%
RNA1{r(C)p.[fl2r](U)p.r(A)p.r(G)p.r(A)p.r(G)p.r(G)p.[fl2r](A)p.r(U)p.r(C)p.r(U)p.[fl2r](U)p.r(G)p.r(A)p.r(A)p.r(G)p.r(A)p.r(C)p.r(C)p.r(T)p.r(T)}|RNA2{r(G)p.r(G)p.r(U)p.r(C)p.r(U)p.r(U)p.r(C)p.r(A)p.r(A)p.r(G)p.r(A)p.r(U)p.r(C)p.r(C)p.r(U)p.r(C)p.[fl2r](U)p.r(A)p.r(G)p.r(T)p.r(T)}$$$RNA1{StrandType:ss}|RNA2{StrandType:as}$	78%
RNA1{r(C)p.[fl2r](U)p.r(A)p.r(G)p.r(A)p.r(G)p.r(G)p.r(A)p.r(U)p.r(C)p.r(U)p.[fl2r](U)p.r(G)p.r(A)p.r(A)p.r(G)p.r(A)p.r(C)p.r(C)p.r(T)p.r(T)}|RNA2{r(G)p.r(G)p.r(U)p.r(C)p.r(U)p.r(U)p.[fl2r](C)p.r(A)p.r(A)p.r(G)p.r(A)p.r(U)p.r(C)p.r(C)p.r(U)p.r(C)p.[fl2r](U)p.r(A)p.r(G)p.r(T)p.r(T)}$$$RNA1{StrandType:ss}|RNA2{StrandType:as}$	67% and 91%
RNA1{r(C)p.[fl2r](U)p.r(A)p.r(G)p.r(A)p.r(G)p.r(G)p.r(A)p.r(U)p.r(C)p.r(U)p.r(U)p.r(G)p.r(A)p.r(A)p.r(G)p.r(A)p.r(C)p.r(C)p.r(T)p.r(T)}|RNA2{r(G)p.r(G)p.r(U)p.r(C)p.r(U)p.r(U)p.r(C)p.r(A)p.r(A)p.r(G)p.r(A)p.r(U)p.r(C)p.r(C)p.r(U)p.r(C)p.r(U)p.r(A)p.r(G)p.r(T)p.r(T)}$$$RNA1{StrandType:ss}|RNA2{StrandType:as}$	81%
RNA1{r(C)p.[fl2r](U)p.r(G)p.r(A)p.r(C)p.r(C)p.r(G)p.r(G)p.r(A)p.r(A)p.[fl2r](G)p.r(C)p.r(G)p.r(C)p.r(U)p.[fl2r](U)p.r(A)p.r(A)p.r(A)p.r(T)p.r(T)}|RNA2{r(U)p.r(U)p.[fl2r](U)p.r(A)p.r(A)p.r(G)p.r(C)p.r(G)p.r(C)p.r(U)p.r(U)p.r(C)p.r(C)p.r(G)p.r(G)p.r(U)p.[fl2r](C)p.r(A)p.r(G)p.r(T)p.r(T)}$$$RNA1{StrandType:ss}|RNA2{StrandType:as}$	85%
RNA1{r(C)p.[fl2r](U)p.r(G)p.r(A)p.r(C)p.r(C)p.r(G)p.r(G)p.r(A)p.r(A)p.r(G)p.r(C)p.r(G)p.r(C)p.r(U)p.r(U)p.r(A)p.r(A)p.r(A)p.r(T)p.r(T)}|RNA2{r(U)p.r(U)p.[fl2r](U)p.r(A)p.r(A)p.r(G)p.r(C)p.r(G)p.r(C)p.r(U)p.r(U)p.r(C)p.r(C)p.r(G)p.r(G)p.r(U)p.r(C)p.r(A)p.r(G)p.r(T)p.r(T)}$$$RNA1{StrandType:ss}|RNA2{StrandType:as}$	87%
RNA1{r(C)p.m(C)p.r(C)p.m(C)p.r(A)p.m(G)p.r(G)p.m(U)p.r(A)p.m(A)p.r(C)p.m(G)p.r(A)p.r(U)p.r(U)p.m(U)p.r(U)p.r(C)p.r(U)p.r(T)p.r(T)}|RNA2{r(A)p.r(G)p.r(A)p.r(A)p.r(A)p.r(A)p.r(U)p.m(C)p.r(G)p.r(U)p.r(U)p.r(A)p.m(C)p.m(C)p.r(U)p.r(G)p.r(G)p.r(G)p.r(G)p.r(T)p.r(T)}$$$RNA1{StrandType:ss}|RNA2{StrandType:as}$	69%
